The target of this experiment is T1, human mAChR M1 (Homo sapiens, UniProt P11229).
T1 construct: host or cells: CHO-K1
T1 sequence (P11229 1-460): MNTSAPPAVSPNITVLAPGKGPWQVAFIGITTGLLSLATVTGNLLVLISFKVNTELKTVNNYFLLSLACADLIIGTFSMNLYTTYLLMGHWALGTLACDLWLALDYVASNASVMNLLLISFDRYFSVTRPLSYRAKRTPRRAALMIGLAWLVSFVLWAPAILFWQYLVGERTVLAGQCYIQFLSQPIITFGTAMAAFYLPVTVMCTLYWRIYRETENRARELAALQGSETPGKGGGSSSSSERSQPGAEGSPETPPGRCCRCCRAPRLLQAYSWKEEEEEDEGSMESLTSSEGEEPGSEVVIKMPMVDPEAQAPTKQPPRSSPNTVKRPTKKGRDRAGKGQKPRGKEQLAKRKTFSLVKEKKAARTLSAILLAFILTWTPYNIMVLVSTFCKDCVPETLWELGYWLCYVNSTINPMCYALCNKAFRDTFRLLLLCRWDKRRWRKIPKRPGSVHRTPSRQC
Put plainly: mAChR M1 cell-based functional assay (calcium mobilization, Fluo-4, FDSS). Particulars: CHO-K1 cells stably expressing hM1; for Emax: EC20 acetylcholine response, read-out: Human M1 Emax; for EC50: positive allosteric modulator activity as increase in the EC20 acetylcholine response. A digest of the protocol:
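CHO-K1 cells stably expressing muscarinic receptor, loaded with Fluo-4; 11-point 1:3 compound series added and calcium flux read over 300 s at 1 Hz. Agonism from direct calcium rise, PAM activity as potentiation of EC20 acetylcholine, antagonism as decrease of EC80 acetylcholine; four-parameter logistic fits.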
(Calcium flux is commonly read through the fluorescence of an indicator in the cells.)

Here are results for 26 molecules from US10899759B2, “Positive allosteric modulators of the muscarinic acetylcholine receptor M1” (Vanderbilt University, priority 2016, dated 2021).

With `Cn1ccc(-c2ccc(Cc3cc(C(=O)NCC4CCOC4)nc4sccc34)cc2)n1` (stereo not shown) [Compound 95, 4-[[4-(1-methylpyrazol-3-yl)phenyl]methyl]-N-(tetrahydrofuran-3-ylmethyl)thieno[2,3-b]pyridine-6-carboxamide], the Emax (in general, the greatest response seen or fitted, relative to the assay's reference) is 65.5% and the EC50 (in general, the concentration needed to bring the measured effect to its halfway point) is 370 nM.
For the molecule `Cn1ccc(-c2ccc(Cc3cc(C(=O)NC4CC5(COC5)C4)nc4sccc34)cc2)n1` [Compound 96, 4-[[4-(1-methylpyrazol-3-yl)phenyl]methyl]-N-(2-oxaspiro[3.3]heptan-6-yl)thieno[2,3-b]pyridine-6-carboxamide], the Emax amounted to 69.9% and the EC50 was 280 nM.
The matching figures for `Cn1ccc(-c2ccc(Cc3cc(C(=O)NC4CC(F)C4)nc4sccc34)cc2)n1` (stereo not shown) [Compound 97, N-(3-fluorocyclobutyl)-4-[[4-(1-methylpyrazol-3-yl)phenyl]methyl]thieno[2,3-b]pyridine-6-carboxamide]: 65.9% and 140 nM.
Turning to `Cn1ccc(-c2ccc(Cc3cc(C(=O)NC4CC(F)(F)C4)nc4sccc34)cc2)n1` [Compound 98, N-(3,3-difluorocyclobutyl)-4-[[4-(1-methylpyrazol-3-yl)phenyl]methyl]thieno[2,3-b]pyridine-6-carboxamide], the Emax came out at 68.7% and the EC50 is 1650 nM.
`COCCNC(=O)c1cc(Cc2ccc(-c3ccn(C)n3)cc2)c2ccsc2n1` [Compound 99, N-(2-methoxyethyl)-4-[[4-(1-methylpyrazol-3-yl)phenyl]methyl]thieno[2,3-b]pyridine-6-carboxamide]: the Emax came to 62.8% and the EC50 was determined as 3330 nM.
`COCC(C)NC(=O)c1cc(Cc2ccc(-c3ccn(C)n3)cc2)c2ccsc2n1` (stereo not shown) [Compound 100, N-(2-methoxy-1-methyl-ethyl)-4-[[4-(1-methylpyrazol-3-yl)phenyl]methyl]thieno[2,3-b]pyridine-6-carboxamide]: the Emax was determined as 63.5% and the EC50 is 480 nM.
The corresponding values for `Cn1ccc(-c2ccc(Cc3cc(C(=O)N[C@H]4CCCC[C@@H]4O)nc4sccc34)cn2)n1` [Compound 101, N-[(1S,2S)-2-hydroxycyclohexyl]-4-[[6-(1-methylpyrazol-3-yl)-3-pyridyl]methyl]thieno[2,3-b]pyridine-6-carboxamide] are 67.2% and 2660 nM.
In the case of `Cn1ccc(-c2ccc(Cc3cc(C(=O)NC4CCOCC4)nc4sccc34)cn2)n1` [Compound 102, 4-[[6-(1-methylpyrazol-3-yl)-3-pyridyl]methyl]-N-tetrahydropyran-4-yl-thieno[2,3-b]pyridine-6-carboxamide], the Emax stood at 37.9% and the EC50 was 20 nM.
The matching figures for `Cn1ccc(-c2ccc(Cc3cc(C(=O)NC4CCOC(C)(C)C4)nc4sccc34)cn2)n1` (stereo not shown) [Compound 103, N-(2,2-dimethyltetrahydropyran-4-yl)-4-[[6-(1-methylpyrazol-3-yl)-3-pyridyl]methyl]thieno[2,3-b]pyridine-6-carboxamide]: 60.5% and 70 nM.
The corresponding values for `CC1CC(NC(=O)c2cc(Cc3ccc(-c4ccn(C)n4)nc3)c3ccsc3n2)CC(C)O1` (stereo not shown) [Compound 104, N-(2,6-dimethyltetrahydropyran-4-yl)-4-[[6-(1-methylpyrazol-3-yl)-3-pyridyl]methyl]thieno[2,3-b]pyridine-6-carboxamide] are 59.7% and 90 nM.
The corresponding values for `Cn1ccc(-c2ccc(Cc3cc(C(=O)NC4CCOCC4(C)C)nc4sccc34)cn2)n1` (stereo not shown) [Compound 105, N-(3,3-dimethyltetrahydropyran-4-yl)-4-[[6-(1-methylpyrazol-3-yl)-3-pyridyl]methyl]thieno[2,3-b]pyridine-6-carboxamide] are 63.5% and 370 nM.
In the case of `CC1COCCC1NC(=O)c1cc(Cc2ccc(-c3ccn(C)n3)nc2)c2ccsc2n1` (stereo not shown) [Compound 106, 4-[[6-(1-methylpyrazol-3-yl)-3-pyridyl]methyl]-N-(3-methyltetrahydropyran-4-yl)thieno[2,3-b]pyridine-6-carboxamide], the Emax amounted to 58.4% and the EC50 worked out at 110 nM.
On to `Cn1ccc(-c2ccc(Cc3cc(C(=O)NCC4CCOCC4)nc4sccc34)cn2)n1` [Compound 107, 4-[[6-(1-methylpyrazol-3-yl)-3-pyridyl]methyl]-N-(tetrahydropyran-4-ylmethyl)thieno[2,3-b]pyridine-6-carboxamide], for which the Emax was 57.3% and the EC50 turned out to be 90 nM.
The corresponding values for `Cn1ccc(-c2ccc(Cc3cc(C(=O)NCC4CCOC4)nc4sccc34)cn2)n1` (stereo not shown) [Compound 108, 4-[[6-(1-methylpyrazol-3-yl)-3-pyridyl]methyl]-N-(tetrahydrofuran-3-ylmethyl)thieno[2,3-b]pyridine-6-carboxamide] are 59.4% and 150 nM.
The corresponding values for `Cn1ccc(-c2ccc(Cc3cc(C(=O)NC4CC5(COC5)C4)nc4sccc34)cn2)n1` [Compound 109, 4-[[6-(1-methylpyrazol-3-yl)-3-pyridyl]methyl]-N-(2-oxaspiro[3.3]heptan-6-yl)thieno[2,3-b]pyridine-6-carboxamide] are 56.8% and 150 nM.
As for `Cn1ccc(-c2ccc(Cc3cc(C(=O)NC4CC(F)C4)nc4sccc34)cn2)n1` (stereo not shown) [Compound 110, N-(3-fluorocyclobutyl)-4-[[6-(1-methylpyrazol-3-yl)-3-pyridyl]methyl]thieno[2,3-b]pyridine-6-carboxamide], the Emax came out at 58.4% and the EC50 was 60 nM.
The corresponding values for `COCCNC(=O)c1cc(Cc2ccc(-c3ccn(C)n3)nc2)c2ccsc2n1` [Compound 111, N-(2-methoxyethyl)-4-[[6-(1-methylpyrazol-3-yl)-3-pyridyl]methyl]thieno[2,3-b]pyridine-6-carboxamide] are 63.2% and 370 nM.
The matching figures for `COCC(C)NC(=O)c1cc(Cc2ccc(-c3ccn(C)n3)nc2)c2ccsc2n1` (stereo not shown) [Compound 112, N-(2-methoxy-1-methyl-ethyl)-4-[[6-(1-methylpyrazol-3-yl)-3-pyridyl]methyl]thieno[2,3-b]pyridine-6-carboxamide]: 59.5% and 390 nM.
On to `Cn1cc(-c2ccc(Cc3cc(C(=O)N[C@H]4CCCC[C@@H]4O)nc4sccc34)cn2)cn1` [Compound 113, N-[(1S,2S)-2-hydroxycyclohexyl]-4-[[6-(1-methylpyrazol-4-yl)-3-pyridyl]methyl]thieno[2,3-b]pyridine-6-carboxamide], for which the Emax is 60.5% and the EC50 was found to be 810 nM.
For `Cn1cc(-c2ccc(Cc3cc(C(=O)NC4CCOCC4)nc4sccc34)cn2)cn1` [Compound 114, 4-[[6-(1-methylpyrazol-4-yl)-3-pyridyl]methyl]-N-tetrahydropyran-4-yl-thieno[2,3-b]pyridine-6-carboxamide], the Emax was found to be 38.6% and the EC50 came out at 10 nM.
The matching figures for `Cn1cc(-c2ccc(Cc3cc(C(=O)NC4CCOC(C)(C)C4)nc4sccc34)cn2)cn1` (stereo not shown) [Compound 115, N-(2,2-dimethyltetrahydropyran-4-yl)-4-[[6-(1-methylpyrazol-4-yl)-3-pyridyl]methyl]thieno[2,3-b]pyridine-6-carboxamide]: 59.7% and 50 nM.
The matching figures for `CC1CC(NC(=O)c2cc(Cc3ccc(-c4cnn(C)c4)nc3)c3ccsc3n2)CC(C)O1` (stereo not shown) [Compound 116, N-(2,6-dimethyltetrahydropyran-4-yl)-4-[[6-(1-methylpyrazol-4-yl)-3-pyridyl]methyl]thieno[2,3-b]pyridine-6-carboxamide]: 54.8% and 50 nM.
The corresponding values for `Cn1cc(-c2ccc(Cc3cc(C(=O)NC4CCOCC4(C)C)nc4sccc34)cn2)cn1` (stereo not shown) [Compound 117, N-(3,3-dimethyltetrahydropyran-4-yl)-4-[[6-(1-methylpyrazol-4-yl)-3-pyridyl]methyl]thieno[2,3-b]pyridine-6-carboxamide] are 55.7% and 150 nM.
Consider `CC1COCCC1NC(=O)c1cc(Cc2ccc(-c3cnn(C)c3)nc2)c2ccsc2n1` (stereo not shown) [Compound 118, 4-[[6-(1-methylpyrazol-4-yl)-3-pyridyl]methyl]-N-(3-methyltetrahydropyran-4-yl)thieno[2,3-b]pyridine-6-carboxamide], for which the Emax was 52.2% and the EC50 worked out at 70 nM.
On to `Cn1cc(-c2ccc(Cc3cc(C(=O)NCC4CCOCC4)nc4sccc34)cn2)cn1` [Compound 119, 4-[[6-(1-methylpyrazol-4-yl)-3-pyridyl]methyl]-N-(tetrahydropyran-4-ylmethyl)thieno[2,3-b]pyridine-6-carboxamide], for which the Emax was found to be 54.8% and the EC50 is 60 nM.
Consider `Cn1cc(-c2ccc(Cc3cc(C(=O)N[C@H]4CCOC4)nc4sccc34)cn2)cn1` [Compound 120, 4-[[6-(1-methylpyrazol-4-yl)-3-pyridyl]methyl]-N-[(3S)-tetrahydrofuran-3-yl]thieno[2,3-b]pyridine-6-carboxamide], for which the Emax is 56.9% and the EC50 stood at 80 nM.
